According to the NIST ThermoML archive (doi:10.1021/acs.jced.7b00078):
± gives the expanded uncertainty stated by the source. Blank lines part the entries; values can stand above or below the compound they belong to.

Conditions: Liquid; for mass density: 303.15 K, 101.33 kPa, Vibrating tube method; for vapor or sublimation pressure: Ebulliometric method (Recirculating still)

Compound: CO [methanol]
mass density: 781.81 ± 0.15 kg/m3
vapor or sublimation pressure (315.8 K): 40 ± 0.15 kPa
vapor or sublimation pressure (337.97 K): 101.33 ± 0.15 kPa

Compound: CCCCO [butan-1-ol]
mass density: 801.92 ± 0.14 kg/m3
vapor or sublimation pressure (366.81 K): 40 ± 0.14 kPa
vapor or sublimation pressure (390.72 K): 101.33 ± 0.14 kPa

Compound: CSSC [2,3-dithiabutane]
mass density: 1051.14 ± 0.14 kg/m3
vapor or sublimation pressure (353.42 K): 40 ± 0.13 kPa
vapor or sublimation pressure (382.87 K): 101.33 ± 0.14 kPa

Other lines, results leading:

mass density: 795.54 ± 0.15 kg/m3
vapor or sublimation pressure (347.65 K): 40 ± 0.15 kPa
vapor or sublimation pressure (370.23 K): 101.33 ± 0.15 kPa
Compound: CCCO [propan-1-ol]

mass density: 780.78 ± 0.15 kg/m3
vapor or sublimation pressure (329.63 K): 40 ± 0.15 kPa
vapor or sublimation pressure (351.51 K): 101.33 ± 0.15 kPa
Compound: CCO [ethanol]
